Eleven molecules from patent publication US20220220155A1, “VASCULAR C[…] USE THEREOF” (priority 2019, published 2022) can be followed below.

The target in experiment [1] is T1, SMase-treated LDL (Homo sapiens, UniProt P04114).
T1 construct: from tissue; host or cells: pooled normolipemic human plasma
Kind of experiment: Anti-LDL aggregation assay, turbidimetry, aggregation induced by sphingomyelinase (SMase). Format: biochemical. The conditions noted are these: peptide 10 μM (compound/ApoB-100 4.7/1), human LDL 1.44 mg/mL, 40 U/L Bacillus cereus SMase, 18 hours, 37° C., absorbance at 405 nm, Equation I. The procedure:
(§1) The efficacy of the novel compounds to inhibit the aggregation of LDL has been tested in two parallel turbidimetric assays differing from each other only in the enzyme used to induce LDL aggregation, namely sphingomyelinase (SMase) and phospholipase A2 (PLA2), respectively.
(§2) Human LDL (d1.019-d1.063 g/mL) were obtained from pooled normolipemic human plasma by sequential ultracentrifugation in a KBr density gradient. Briefly, VLDL were first discarded after spinning plasma at 36.000 rpm for 18 h at 4° C., VLDL-free plasma was layered with 1.063 g/mL KBr solution and centrifuged at 36,000 rpm for 18 h at 4° C. LDL were dialyzed against 0.02 M Tris, 0.15 M NaCl, 1 mM EDTA, pH 7.5 for 18 hours, and then against normal saline for 2 hours. Finally, isolated LDL were filter-sterilized. Protein concentration was determined using a colorimetric assay.
(§3) Human LDL particles (1.44 mg/mL) were incubated with 40 U/L of Bacillus cereus SMase or with 50 μg/L of type II secretory PLA2 from honey bee venom in 20 mM Tris buffer (pH 7.0) containing 150 mM NaCl, 2 mM CaCl2), and MgCl2 at 37° C. LDL incubation with SMase and PLA2 was performed at peptide concentration of 10 μM (ratio compound/ApoB-100: 4.7/1) for 18 hours. LDL lipolysis was stopped by addition of EDTA (final concentration 10 mM).
(§4) The efficiency of each novel compound to inhibit LDL aggregation induced by SMase and PLA2 was estimated by turbidimetry measuring the absorbance at a wavelength of 405 nm. Thus, the inhibitory activity was calculated according to Equation I.
(§5) a corresponds to the absorbance value in the presence of nLDL particles, LDL aggregating enzyme (i.e., SMase or PLA2) and test compound;
(§6) b corresponds to the absorbance value in the presence of only nLDL particles;
(§7) c corresponds to the absorbance value in the presence of nLDL particles and LDL aggregating enzyme (i.e., SMase or PLA2);

Experiment [2] addresses T2, PLA2-treated LDL (Homo sapiens, UniProt P04114).
T2 construct: from tissue; host or cells: pooled normolipemic human plasma
Kind of experiment: Anti-LDL aggregation assay, turbidimetry, aggregation induced by phospholipase A2 (PLA2). Type of experiment: biochemical. The conditions noted are these: 18 h, read-out: Inhibition of LDL aggregation, PLA2-treated LDL. The procedure: as §1, §2, §3, §4, §5, §6, §7

Experiment [3] deals with human coronary vascular smooth muscle cells (hcVSMC). The experiment is described as follows: Inhibition of intracellular cholesterol accumulation induced by SMase (CE/FC ratio). Format: cell-based. The conditions noted are these: hcVSMC exposed 2 hours to SMase-LDL treated overnight with peptide 10 μM; CE and FC by thin layer chromatography and densitometry, Equation II. The procedure:
Thus, the inhibitory effect of the novel compounds on the intracellular cholesterol accumulation has been analysed in terms of decrease in the ratio of intracellular CE and free cholesterol FC content of hcVSMC exposed to LDL and SMase-LDL.
All cells used were from a unique batch in order to prevent variability from cell origin. Cell quiescence was induced by maintaining the cell culture for 24 hours in a medium. Serum-deprived cells between passages 4 and 8 were used for experiments. VSMCs at these passages appeared as a relatively homogeneous population, showing a hill-and-valley confluence pattern. Cell monolayers were grown in vascular cell basal medium supplemented with vascular smooth muscle growth kit components. Quiescent cells were 2-hours exposed to LDL treated with SMase (in absence or presence of peptides) overnight at a concentration of 10 μM previously checked its aggregation by a turbidimetry test. Cells were then either collected for lipid extraction or processed for confocal microscopy analysis.
Following the lipoprotein incubation period, hcVSMC were exhaustively washed (twice with PBS, twice with PBS supplemented with 1% BSA, and once with PBS supplemented with both 1% BSA and 100 U/mL heparin), before they were harvested into 1 mL of 0.15 M NaOH. Lipids were extracted using the Bligh and Dyer method. The lipid extract was redissolved in dichloromethane, applied to silica gel plates, and separated by thin layer chromatography. A mixture of cholesterol and cholesterol palmitate, were also run as standards. Heptane or a solvent combination of heptane/diethylether/acetic acid (74:21:4, v/v/v) were used as chromatographic mobile phase. After lipid separation, the plates were dried and stained as previously reported. Finally, the spots corresponding to cholesteryl ester (CE) and free cholesterol (FC) were quantitated by densitometry.
The efficacy of each novel compound to decrease the ratio of intracellular cholesteryl esters (CE) and free cholesterol (FC) content of hcVSMC exposed to LDL and SMase-LDL was calculated according to Equation II.
a corresponds to the CE/FC ratio in hcVSMC exposed to SMase-LDL and in the presence of the test compound.
b corresponds to the CE/FC ratio in hcVSMC exposed to nLDL in the absence of the test compound.
c corresponds to the CE/FC ratio in hcVSMC exposed to SMase-LDL in the absence of the test compound.

Where a SMILES comes first, the peptide text is derived from it. [ ]: non-standard residue; d: D form. ξ: configuration not given here. ξD = NC(CC(=O)O)C(=O)O

T2 sequence (P04114 28-4563): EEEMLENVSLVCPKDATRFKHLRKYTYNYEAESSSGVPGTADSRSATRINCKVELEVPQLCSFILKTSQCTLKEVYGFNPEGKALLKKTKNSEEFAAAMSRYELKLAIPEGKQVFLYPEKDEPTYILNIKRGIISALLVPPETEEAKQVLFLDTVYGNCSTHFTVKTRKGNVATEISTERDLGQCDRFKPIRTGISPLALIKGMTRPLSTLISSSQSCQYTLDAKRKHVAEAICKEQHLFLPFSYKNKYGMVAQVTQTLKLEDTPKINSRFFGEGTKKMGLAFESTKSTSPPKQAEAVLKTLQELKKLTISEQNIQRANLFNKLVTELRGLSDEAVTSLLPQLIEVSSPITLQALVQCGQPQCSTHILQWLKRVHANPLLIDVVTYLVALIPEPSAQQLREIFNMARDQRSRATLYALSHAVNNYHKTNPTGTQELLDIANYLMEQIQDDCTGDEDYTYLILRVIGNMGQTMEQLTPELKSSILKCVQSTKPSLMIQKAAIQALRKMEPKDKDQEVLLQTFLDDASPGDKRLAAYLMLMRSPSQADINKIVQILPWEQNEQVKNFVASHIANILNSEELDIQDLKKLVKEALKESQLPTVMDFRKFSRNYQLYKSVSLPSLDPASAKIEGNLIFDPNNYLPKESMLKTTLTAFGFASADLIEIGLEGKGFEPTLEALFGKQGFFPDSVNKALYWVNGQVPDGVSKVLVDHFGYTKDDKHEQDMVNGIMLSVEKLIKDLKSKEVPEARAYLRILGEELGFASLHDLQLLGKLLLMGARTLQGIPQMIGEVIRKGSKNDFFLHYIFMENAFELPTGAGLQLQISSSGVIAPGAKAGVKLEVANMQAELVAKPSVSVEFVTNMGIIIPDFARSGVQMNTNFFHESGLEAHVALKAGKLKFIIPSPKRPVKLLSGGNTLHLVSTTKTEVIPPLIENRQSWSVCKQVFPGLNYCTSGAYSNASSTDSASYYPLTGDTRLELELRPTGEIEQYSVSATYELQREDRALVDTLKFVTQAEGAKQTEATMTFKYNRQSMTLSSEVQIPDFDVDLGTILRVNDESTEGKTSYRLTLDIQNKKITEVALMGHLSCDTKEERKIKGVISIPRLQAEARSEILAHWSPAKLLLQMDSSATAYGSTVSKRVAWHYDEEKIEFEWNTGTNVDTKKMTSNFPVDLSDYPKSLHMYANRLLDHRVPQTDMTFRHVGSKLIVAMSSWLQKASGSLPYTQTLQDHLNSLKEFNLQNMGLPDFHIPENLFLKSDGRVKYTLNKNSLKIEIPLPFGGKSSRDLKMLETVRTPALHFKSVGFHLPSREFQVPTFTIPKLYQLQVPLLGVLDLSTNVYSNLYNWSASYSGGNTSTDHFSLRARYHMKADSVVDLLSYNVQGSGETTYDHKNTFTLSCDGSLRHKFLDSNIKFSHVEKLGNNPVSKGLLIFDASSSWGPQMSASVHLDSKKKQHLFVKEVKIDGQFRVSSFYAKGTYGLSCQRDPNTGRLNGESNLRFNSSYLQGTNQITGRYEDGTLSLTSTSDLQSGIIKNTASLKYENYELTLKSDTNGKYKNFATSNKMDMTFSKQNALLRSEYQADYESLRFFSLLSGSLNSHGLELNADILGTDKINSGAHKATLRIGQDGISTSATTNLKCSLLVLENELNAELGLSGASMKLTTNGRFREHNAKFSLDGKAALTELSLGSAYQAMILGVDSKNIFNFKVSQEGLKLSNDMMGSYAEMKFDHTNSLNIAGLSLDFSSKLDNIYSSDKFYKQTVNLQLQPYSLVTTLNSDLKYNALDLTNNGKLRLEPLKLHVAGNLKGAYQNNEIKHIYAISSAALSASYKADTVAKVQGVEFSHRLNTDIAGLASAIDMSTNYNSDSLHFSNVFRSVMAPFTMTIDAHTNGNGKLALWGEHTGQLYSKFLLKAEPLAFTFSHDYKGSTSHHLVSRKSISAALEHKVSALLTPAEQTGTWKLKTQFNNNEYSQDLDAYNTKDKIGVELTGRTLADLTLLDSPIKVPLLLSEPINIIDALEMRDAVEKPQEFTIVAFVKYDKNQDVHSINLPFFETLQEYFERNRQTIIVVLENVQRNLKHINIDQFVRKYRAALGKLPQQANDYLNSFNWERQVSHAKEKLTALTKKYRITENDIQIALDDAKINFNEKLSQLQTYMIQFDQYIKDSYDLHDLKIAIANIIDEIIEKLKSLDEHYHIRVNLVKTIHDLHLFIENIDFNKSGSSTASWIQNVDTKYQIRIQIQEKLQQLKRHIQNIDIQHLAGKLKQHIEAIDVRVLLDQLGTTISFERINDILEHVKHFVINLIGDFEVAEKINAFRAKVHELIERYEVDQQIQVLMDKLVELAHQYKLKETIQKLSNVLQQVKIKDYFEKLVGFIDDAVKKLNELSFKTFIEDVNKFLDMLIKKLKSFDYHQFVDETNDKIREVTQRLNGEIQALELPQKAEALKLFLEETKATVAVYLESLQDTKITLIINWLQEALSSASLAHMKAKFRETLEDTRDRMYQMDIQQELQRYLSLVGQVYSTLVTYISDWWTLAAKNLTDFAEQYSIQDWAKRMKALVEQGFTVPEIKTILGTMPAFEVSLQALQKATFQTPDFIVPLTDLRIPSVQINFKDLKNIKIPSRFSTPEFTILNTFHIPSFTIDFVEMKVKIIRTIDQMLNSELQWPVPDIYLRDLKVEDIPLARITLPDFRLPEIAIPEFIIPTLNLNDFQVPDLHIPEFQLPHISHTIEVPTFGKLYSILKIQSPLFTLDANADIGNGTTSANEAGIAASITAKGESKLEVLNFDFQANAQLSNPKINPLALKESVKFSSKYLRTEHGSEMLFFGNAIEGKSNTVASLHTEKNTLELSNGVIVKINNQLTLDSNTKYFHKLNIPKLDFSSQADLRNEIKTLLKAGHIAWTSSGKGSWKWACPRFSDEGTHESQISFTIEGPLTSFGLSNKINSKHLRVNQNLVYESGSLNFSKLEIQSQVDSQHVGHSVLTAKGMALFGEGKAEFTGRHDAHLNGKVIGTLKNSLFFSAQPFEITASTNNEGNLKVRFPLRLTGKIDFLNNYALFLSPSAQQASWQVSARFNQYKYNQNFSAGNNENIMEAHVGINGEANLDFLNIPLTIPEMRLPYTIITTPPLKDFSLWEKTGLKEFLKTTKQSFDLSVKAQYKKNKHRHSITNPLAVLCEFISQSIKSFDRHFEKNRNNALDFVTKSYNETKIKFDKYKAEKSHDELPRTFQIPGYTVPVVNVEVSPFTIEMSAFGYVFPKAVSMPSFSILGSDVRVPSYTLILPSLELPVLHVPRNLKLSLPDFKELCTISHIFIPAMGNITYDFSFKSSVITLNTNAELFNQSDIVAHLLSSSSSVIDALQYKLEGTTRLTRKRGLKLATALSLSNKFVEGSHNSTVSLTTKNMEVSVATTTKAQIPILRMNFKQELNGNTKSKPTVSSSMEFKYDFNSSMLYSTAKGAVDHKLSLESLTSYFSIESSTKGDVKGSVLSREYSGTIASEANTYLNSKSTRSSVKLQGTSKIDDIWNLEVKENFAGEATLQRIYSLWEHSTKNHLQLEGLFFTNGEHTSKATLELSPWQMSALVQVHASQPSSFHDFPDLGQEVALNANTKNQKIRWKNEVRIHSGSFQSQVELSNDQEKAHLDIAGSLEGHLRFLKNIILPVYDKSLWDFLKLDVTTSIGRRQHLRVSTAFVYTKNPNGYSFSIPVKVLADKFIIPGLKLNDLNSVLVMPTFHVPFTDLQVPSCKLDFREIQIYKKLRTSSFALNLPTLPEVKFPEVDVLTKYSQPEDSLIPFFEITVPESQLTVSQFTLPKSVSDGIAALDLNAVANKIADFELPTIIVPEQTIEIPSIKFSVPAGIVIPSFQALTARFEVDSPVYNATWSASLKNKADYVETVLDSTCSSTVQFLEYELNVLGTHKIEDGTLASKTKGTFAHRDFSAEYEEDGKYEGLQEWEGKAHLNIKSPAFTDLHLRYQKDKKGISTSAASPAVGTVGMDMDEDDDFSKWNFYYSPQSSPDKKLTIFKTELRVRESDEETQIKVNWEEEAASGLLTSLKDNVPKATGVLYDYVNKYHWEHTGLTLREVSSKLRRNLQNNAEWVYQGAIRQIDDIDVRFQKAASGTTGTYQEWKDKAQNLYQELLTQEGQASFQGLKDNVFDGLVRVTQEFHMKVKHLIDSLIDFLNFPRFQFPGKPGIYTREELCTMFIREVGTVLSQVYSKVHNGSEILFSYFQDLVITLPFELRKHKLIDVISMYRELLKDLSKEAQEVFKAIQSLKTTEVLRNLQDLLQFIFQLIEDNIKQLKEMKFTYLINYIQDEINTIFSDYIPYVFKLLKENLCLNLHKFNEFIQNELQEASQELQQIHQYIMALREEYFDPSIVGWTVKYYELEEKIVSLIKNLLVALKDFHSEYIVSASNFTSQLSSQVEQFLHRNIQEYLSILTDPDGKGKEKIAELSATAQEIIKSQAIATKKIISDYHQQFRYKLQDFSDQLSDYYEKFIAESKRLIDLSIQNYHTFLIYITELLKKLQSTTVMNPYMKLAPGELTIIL
T1 sequence (P04114 28-4563): as above

For the molecule `CC(=O)N[C@H](CO)C(=O)N[C@H](CCC(=O)O)C(=O)N[C@H](CC(=O)O)C(=O)N[C@H](CC(N)=O)C(=O)N[C@H](C)C(=O)N[C@H](CC(=O)O)C(=O)N[C@H](CCC(=O)O)C(=O)N[C@H](CCC(=O)O)C(=O)N[C@H](C)C(N)=O` [Example 3, Ac-D-Ser-D-Glu-D-Asp-D-Asn-D-Ala-D-Asp-D-Glu-D-Glu-D-Ala-NH2] (Ac-[dS][dE][dD][dN][dA][dD][dE][dE][dA]-NH2), the inhibition at 10 µM was 90% in experiment [1] and 37.2% in experiment [2].
Regarding `CC(=O)N[C@H](CO)C(=O)N[C@H](CCC(=O)O)C(=O)N[C@H](CC(=O)O)C(=O)N[C@H](CC(N)=O)C(=O)N[C@H](CO)C(=O)N[C@H](CC(=O)O)C(=O)N[C@H](CCC(=O)O)C(=O)N[C@H](CCC(=O)O)C(=O)N[C@H](CC(N)=O)C(N)=O` [Example 2, Ac-D-Ser-D-Glu-D-Asp-D-Asn-D-Ser-D-Asp-D-Glu-D-Glu-D-Asn-NH2] (Ac-[dS][dE][dD][dN][dS][dD][dE][dE][dN]-NH2), the “CE/FC ratio decrease (%)” value in experiment [3] is on record as 58.8%. Also, the inhibition at 10 µM was found to be 80.7% in experiment [1] and 87.7% in experiment [2].
The matching figures for `CC(=O)N[C@H](CC(=O)O)C(=O)N[C@H](CO)C(=O)N[C@H](CCC(=O)O)C(=O)N[C@H](CC(=O)O)C(=O)N[C@H](CC(N)=O)C(=O)N[C@H](CCCCN)C(=O)N[C@H](CC(=O)O)C(=O)N[C@H](CCC(=O)O)C(=O)N[C@H](CCC(=O)O)C(=O)N[C@H](C)C(N)=O` [Example 19, Ac-D-Asp-D-Ser-D-Glu-D-Asp-D-Asn-D-Lys-D-Asp-D-Glu-D-Glu-D-Ala-NH2] (Ac-[dD][dS][dE][dD][dN][dK][dD][dE][dE][dA]-NH2): 17.7%, 87.5% and 46.2%.
On to `CC(=O)N[C@H](CO)C(=O)N[C@H](CCC(=O)O)C(=O)N[C@H](CC(=O)O)C(=O)N[C@H](CC(N)=O)C(=O)N[C@H](CCCNC(=N)N)C(=O)N[C@H](CC(=O)O)C(=O)N[C@H](CCC(=O)O)C(=O)N[C@H](CCC(=O)O)C(=O)N[C@H](CCCNC(=N)N)C(N)=O` [Example 6, Ac-D-Ser-D-Glu-D-Asp-D-Asn-D-Arg-D-Asp-D-Glu-D-Glu-D-Arg-NH2] (Ac-[dS][dE][dD][dN][dR][dD][dE][dE][dR]-NH2), for which, in experiment [3], the “CE/FC ratio decrease (%)” value was 58.8%. The inhibition at 10 µM in experiment [1] came to 85%; in experiment [2], 15.3%.
Regarding `CC(=O)N[C@H](CC(=O)O)C(=O)N[C@H](CO)C(=O)N[C@H](CCC(=O)O)C(=O)N[C@H](CC(=O)O)C(=O)N[C@H](CC(N)=O)C(=O)N[C@H](CO)C(=O)N[C@H](CC(=O)O)C(=O)N[C@H](CCC(=O)O)C(=O)N[C@H](CCC(=O)O)C(=O)N[C@H](CC(N)=O)C(N)=O` [Example 12, Ac-D-Asp-D-Ser-D-Glu-D-Asp-D-Asn-D-Ser-D-Asp-D-Glu-D-Glu-D-Asn-NH2] (Ac-[dD][dS][dE][dD][dN][dS][dD][dE][dE][dN]-NH2), the “CE/FC ratio decrease (%)” value in experiment [3] worked out at 76.5%. The results for the inhibition at 10 µM in experiment [1] and in experiment [2] were 93.3% and 94.3%, respectively.
The like results for `CC(=O)N[C@H](CC(N)=O)C(=O)N[C@H](CC(=O)O)C(=O)N[C@H](CO)C(=O)N[C@H](CCC(=O)O)C(=O)N[C@H](CC(=O)O)C(=O)N[C@H](CC(N)=O)C(=O)N[C@H](CO)C(=O)N[C@H](CC(=O)O)C(=O)N[C@H](CCC(=O)O)C(=O)N[C@H](CCC(=O)O)C(=O)N[C@H](CC(N)=O)C(N)=O` [Example 11, Ac-D-Asn-D-Asp-D-Ser-D-Glu-D-Asp-D-Asn-D-Ser-D-Asp-D-Glu-D-Glu-D-Asn-NH2] (Ac-[dN][dD][dS][dE][dD][dN][dS][dD][dE][dE][dN]-NH2) were, in that order, 76.5%, 94.8% and 95.2%.
For `CC(=O)N[C@H](CC(=O)O)C(=O)N[C@H](CC(N)=O)C(=O)N[C@H](CC(=O)O)C(=O)N[C@H](CO)C(=O)N[C@H](CCC(=O)O)C(=O)NC(CC(=O)O)C(=O)N[C@H](CC(N)=O)C(=O)N[C@H](CO)C(=O)N[C@H](CC(=O)O)C(=O)N[C@H](CCC(=O)O)C(=O)N[C@H](CCC(=O)O)C(=O)N[C@H](C)C(N)=O` (stereo partly drawn) [Example 13, Ac-D-Asp-D-Asn-D-Asp-D-Ser-D-Glu-D-Asp-D-Asn-D-Ser-D-Asp-D-Glu-D-Glu-D-Ala-NH2] (Ac-[dD][dN][dD][dS][dE][ξD][dN][dS][dD][dE][dE][dA]-NH2), in experiment [3], the “CE/FC ratio decrease (%)” value was 80.4%. Further, the inhibition at 10 µM in experiment [1] turned out to be 95.5%; in experiment [2], 95.9%.
`CC(=O)N[C@H](CO)C(=O)N[C@H](CCC(=O)O)C(=O)N[C@H](CC(=O)O)C(=O)N[C@H](CC(N)=O)C(=O)N[C@H](CCCNC(=N)N)C(=O)N[C@H](CC(=O)O)C(=O)N[C@H](CCC(=O)O)C(=O)N[C@H](CCC(=O)O)C(=O)N[C@H](Cc1c[nH]c2ccccc12)C(N)=O` [Example 8, Ac-D-Ser-D-Glu-D-Asp-D-Asn-D-Arg-D-Asp-D-Glu-D-Glu-D-Trp-NH2] (Ac-[dS][dE][dD][dN][dR][dD][dE][dE][dW]-NH2): the values for the inhibition at 10 µM in experiment [1] and in experiment [2] were 64.2% and 3.1%, respectively.
The matching figures for `CC(=O)N[C@H](CO)C(=O)N[C@H](CCC(=O)O)C(=O)N[C@H](CC(=O)O)C(=O)N[C@H](CCC(N)=O)C(=O)N[C@H](C)C(=O)N[C@H](CCC(=O)O)C(=O)N[C@H](CCC(=O)O)C(=O)N[C@H](CCC(=O)O)C(=O)N[C@H](C)C(N)=O` [Example 5, Ac-D-Ser-D-Glu-D-Asp-D-Gln-D-Ala-D-Glu-D-Glu-D-Glu-D-Ala-NH2] (Ac-[dS][dE][dD][dQ][dA][dE][dE][dE][dA]-NH2): 90.1% and 20.7%.
The like results for `CC(=O)N[C@H](CO)C(=O)N[C@H](CCC(=O)O)C(=O)N[C@H](CC(=O)O)C(=O)N[C@H](CCC(N)=O)C(=O)N[C@H](CO)C(=O)N[C@H](CCC(=O)O)C(=O)N[C@H](CCC(=O)O)C(=O)N[C@H](CCC(=O)O)C(=O)N[C@H](CCC(N)=O)C(N)=O` [Example 4, Ac-D-Ser-D-Glu-D-Asp-D-Gln-D-Ser-D-Glu-D-Glu-D-Glu-D-Gln-NH2] (Ac-[dS][dE][dD][dQ][dS][dE][dE][dE][dQ]-NH2) were, in that order, 91.5% and 32.6%.
The matching figures for `CC(=O)N[C@H](CO)C(=O)N[C@H](CCC(=O)O)C(=O)N[C@H](CC(=O)O)C(=O)N[C@H](CC(N)=O)C(=O)N[C@H](CCCNC(=N)N)C(=O)N[C@H](CC(=O)O)C(=O)N[C@H](CCC(=O)O)C(=O)N[C@H](CCC(=O)O)C(=O)N[C@H](CC(C)C)C(N)=O` [Example 7, Ac-D-Ser-D-Glu-D-Asp-D-Asn-D-Arg-D-Asp-D-Glu-D-Glu-D-Leu-NH2] (Ac-[dS][dE][dD][dN][dR][dD][dE][dE][dL]-NH2): 44.7% and -1.9%.
